Values of other authors as cited in patent publication US12458707B2, “Targeted delivery of immunoregulatory drugs” (The Brigham and Women's Hospital, Inc., priority 2014, dated 2025).

System: NOD mice
Conditions: 2.5 mg/kg/day every other day

## C=CC[C@@H]1/C=C(\C)C[C@H](C)C[C@H](OC)[C@H]2O[C@@](O)(C(=O)C(=O)N3CCCC[C@H]3C(=O)O[C@H](/C(C)=C/[C@@H]3CC[C@@H](O)[C@H](OC)C3)[C@H](C)[C@@H](O)CC1=O)[C@H](C)C[C@@H]2OC [TAC, Tacrolimus]
  suppression of T1D: efficiently suppress T1D
